Data from US12116422B2, “Stapled peptide and use thereof in preparation of drug for treating pancreatic cancer” (Ruijin Hospital, Shanghai Jiao Tong University School of …, priority 2022, dated 2024).
“Also recorded” adds a separate entry of the source. Where two headings read alike, the source gives them in different places. Each block holds one compound with its values, some of them ahead of it. Where a SMILES comes first, the peptide text is derived from it. Bridges are numbered along the chain shown (N, C = ends). Where no end group is shown, it is not given here. [ ]: non-standard residue; d: D form. R5 = C=CCCC[C@@](C)(N)C(=O)O

Assays:
ANK domain of N1ICD [1] = target: T1, ANK domain of N1ICD (Homo sapiens, UniProt P46531); assay: SPR binding to the ANK domain
Protocol: (§1) Surface plasmon resonance (SPR) analysis was conducted with a BlAcore T200 instrument (GE Healthcare, Pittsburgh, USA) to analyze the binding kinetics between N1DARP or SAH-mAH2-5 and a monitor peptide. Dissociation constants (KD) were calculated according to BIA evaluation software.
(§2) A tertiary structure simulating the N1DARP was analyzed online using I-TASSAR, a hierarchical server for protein structure prediction, and two α-helical peptides (AH1 and AH2) were identified (FIG. 1A, left side). […] Furthermore, in order to identify the essential amino acids that mediated the interaction between mAH2 and ANK, amino acid substitutions were conducted for each amino acid of mAH2 substituted with Ala, which were then subjected to SPR analysis. […] Based on the above evidence, mAH2 was then further modified by inserting molecular staples at 5 positions and denoted as stapled α-helices (SAHs).
Target sequence in this assay (P46531 1872-2126 limits assumed): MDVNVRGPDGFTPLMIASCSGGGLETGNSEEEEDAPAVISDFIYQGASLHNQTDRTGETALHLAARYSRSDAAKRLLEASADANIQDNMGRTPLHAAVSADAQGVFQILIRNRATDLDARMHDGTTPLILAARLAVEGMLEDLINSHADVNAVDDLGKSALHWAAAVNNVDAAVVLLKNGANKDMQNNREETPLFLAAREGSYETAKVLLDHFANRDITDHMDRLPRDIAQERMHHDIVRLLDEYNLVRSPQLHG

proteinase K, pepsin = assay: Incubation with proteinase K and pepsin; assay type: in vitro ADME
Protocol: (§3) To examine the physicochemical stability of SAH-mAH2-5, mAH2, Pep2-mAH2, and SAH-mAH2-5 were incubated with proteinase K, pepsin, and mouse plasma.

[2] = Incubation with mouse plasma; assay type: in vitro ADME
Protocol: as §3

[3] = system: pancreatic cancer patient-derived organoids; assay: Growth of pancreatic cancer patient-derived organoids (PDOs); assay type: cell-based, human
Description: Four pancreatic cancer tissues were obtained from Ruijin Hospital Affiliated to Shanghai Jiaotong University School of Medicine for organoid culture. All enrolled patients met the following criteria: (i) pathologically diagnosed with pancreatic cancer; (ii) with relatively complete clinicopathological and follow-up data; (iii) without preoperative chemotherapy. Written informed consent was obtained from all relevant patients for the trial, and the study protocol was approved by the Ethics Committee of Ruijin Hospital.
Establishment of patient-derived pancreatic cancer organoids: the normal pancreatic tissues were excised, remaining pancreatic cancer tissues were minced, and enzymatically digested with collagenase (1 mg/ml to 2 mg/ml; Sigma-Aldrich, C9407) in a water bath at 37° C. for 1 h to 2 h. A resulting suspension was filtered through a 100 μm filter to retain tissue debris. The tissue debris was centrifuged at 530 g for 5 min to obtain organoid fractions and resuspended in an RPMI 1640 medium; a resulting suspension was mixed with a cold Matrigel (BD Biocoat, 356234, 10 mg/ml) and then solidified on a pre-warmed 24-well suspension plate at 37° C. for 20 min. After complete gelation, […] of an organoid medium was added to each well, and the plate was transferred to a 37° C./5% humidified CO2 incubator with 2% or ambient O2. […]

PDOX model of PDAC = assay: PDO xenograft (PDOX) models in nude mice, tumor volume and survival; assay type: in vivo, Nude BALB/c mice; conditions: high USP10 and N1ICD expression; 1/2/3/4/5 mg/kg intravenously weekly
Protocol: All animal experimental procedures met institutional ethical requirements and were approved by the Animal Use and Care Committee of Shanghai Jiaotong University School of Medicine. Nude BALB/c mice (male, 4 to 6 weeks old) were purchased from the Chinese Academy of Sciences (Shanghai, China) and kept in a specific pathogen-free facility. For a subcutaneously-injected tumor model, the pancreatic cancer patient-derived organoids (5×10^6 cells/site) were injected subcutaneously into the right side of each mouse. From the first injection, a tumor volume was measured every 7 d using the formula: tumor volume (mm^3)=½(a×b^2), where “a” represented the longest longitudinal diameter and “b” represented the longest transverse diameter.
To evaluate the efficacy of SAH-mAH2-5 in vivo, Capan1 cells (1×10^7 cells/site) and four organoids (5×10^6 cells/site) were subcutaneously injected. One week after inoculation, SAH-CTRL/SAH-mAH2-5 (1/2/3/4/5 mg/kg) and GEM (50 mg/kg) were intravenously injected weekly at the indicated concentrations. Within 35 d from the first injection, the tumor volume was measured every 7 d, and the formula was: tumor volume (mm^3)=½(a×b^2). […]

USP10-N1ICD interaction = target: T2, USP10-N1ICD interaction (Homo sapiens, UniProt P46531); assay: Immunoprecipitation/Western blot of the USP10-N1ICD interaction in Capan1 cells; assay type: cell-based
T2 construct: endogenous in cells; host or cells: Capan1
T2 sequence (P46531 1754-2555 limits assumed): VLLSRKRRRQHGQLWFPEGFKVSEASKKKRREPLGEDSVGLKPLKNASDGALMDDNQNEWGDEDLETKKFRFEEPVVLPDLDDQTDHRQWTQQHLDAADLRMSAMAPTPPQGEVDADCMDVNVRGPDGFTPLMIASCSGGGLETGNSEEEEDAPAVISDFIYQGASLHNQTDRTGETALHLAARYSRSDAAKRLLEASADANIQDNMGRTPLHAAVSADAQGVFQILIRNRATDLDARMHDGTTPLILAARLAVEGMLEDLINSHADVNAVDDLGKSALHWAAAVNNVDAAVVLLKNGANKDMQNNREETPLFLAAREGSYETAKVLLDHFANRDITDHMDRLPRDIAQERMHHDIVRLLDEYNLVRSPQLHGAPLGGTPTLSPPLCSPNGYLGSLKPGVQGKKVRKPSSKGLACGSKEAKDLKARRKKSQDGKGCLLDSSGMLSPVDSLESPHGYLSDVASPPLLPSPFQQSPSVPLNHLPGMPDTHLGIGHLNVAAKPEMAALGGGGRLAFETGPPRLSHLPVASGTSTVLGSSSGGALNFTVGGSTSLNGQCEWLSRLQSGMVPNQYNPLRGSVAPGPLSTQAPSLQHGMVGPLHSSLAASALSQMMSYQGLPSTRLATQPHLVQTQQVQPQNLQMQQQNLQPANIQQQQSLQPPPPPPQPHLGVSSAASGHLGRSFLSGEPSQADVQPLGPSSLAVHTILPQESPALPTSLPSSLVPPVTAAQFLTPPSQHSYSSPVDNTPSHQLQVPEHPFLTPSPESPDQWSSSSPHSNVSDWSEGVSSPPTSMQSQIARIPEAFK
Description: (§4) The pancreatic cancer cell line Capan1 was purchased from the Cell Bank of the Chinese Academy of Sciences. The cells were STR-identified, negative for mycoplasma, and cultured in the RPMI 1640 supplemented with 10% fetal bovine serum and antibiotics.
(§5) A RIPA buffer was mixed with a cocktail of proteases and phosphatase inhibitors for lysing cell samples. Proteins were separated by 10% SDS-PAGE and transferred to a PVDF membrane. The images were generated by a Tanon 5200 chemiluminescence imaging system (Shanghai Tanon Life Science Instrument Co., Ltd.). The corresponding proteins were detected with primary antibodies and appropriate secondary antibodies. The primary antibodies were as follows: anti-USP10 (CST, #8501, 1:1000 for WB, 1:200 for IP), anti-β-actin (CST, #3700, 1:1000 for WB), and anti-N1ICD (CST, #4147, 1:1000 for WB, 1:200 for IP).
Immunoprecipitation analysis: pancreatic cancer cells transfected with indicated plasmid or lentivirus were collected and lysed for 10 min on ice. A resulting lysate was centrifuged to obtain a supernatant, which was then incubated with appropriate antibodies and protein A/G+agarose (Santa Cruz Biotechnology) overnight at 4° C. A resulting immune complex was washed 4 to 6 times and boiled in a 2×SDS sample buffer for 5 min. […] A resulting binding protein was dissolved in the SDS sample buffer and analyzed by immunoblotting.

N1ICD = assay: Western blot of N1ICD expression, stability and ubiquitination in Capan1 cells; assay type: cell-based
Description: as §4, §5
Immunoprecipitation analysis: pancreatic cancer cells transfected with indicated plasmid or lentivirus were collected and lysed for 10 min on ice. A resulting lysate was centrifuged to obtain a supernatant, which was then incubated with appropriate antibodies and protein A/G+agarose (Santa Cruz Biotechnology) overnight at 4° C. A resulting immune complex was washed 4 to 6 times and boiled in a 2×SDS sample buffer for 5 min. A resulting product was separated and co-precipitated using SDS-PAGE and blotted with specific antibodies. A resulting binding protein was dissolved in the SDS sample buffer and analyzed by immunoblotting.

[4] = In vivo safety in healthy mice (serum biochemistry, HE staining); conditions: 2 mg/kg intravenously weekly for 4 weeks
Protocol: To roughly assess the toxicity of SAH-mAH2-5, healthy BALB/c nude mice (5 weeks) were intravenously injected with SAH-CTRL or SAH-mAH2-5 (2 mg/kg) weekly for 4 weeks. The mice were sacrificed, and organs such as pancreas, lung, spleen, kidney, liver, and colon were extracted, which were then subjected to HE staining to screen morphological abnormalities. In addition, serum was collected for biochemical analysis of alanine aminotransferase (ALT), aspartate aminotransferase (AST), blood urea nitrogen (BUN), and creatinine (CR) by a chemical analyzer TBA-40FR (Toshiba Medical Systems, Japan).

ANK domain of N1ICD [5] = target: T1, ANK domain of N1ICD; assay: KD (M)
Description: Table printed on a drawing sheet, FIG. 1C
(§6) Head of the field: KD (M)
First copying reader's note: Brackets drawn over the sequences join the two S5 residues of each staple; the SAH-mAH2-5 row is printed in lighter (highlighted) type.
Target sequence in this assay (P46531 19-2555 limits assumed): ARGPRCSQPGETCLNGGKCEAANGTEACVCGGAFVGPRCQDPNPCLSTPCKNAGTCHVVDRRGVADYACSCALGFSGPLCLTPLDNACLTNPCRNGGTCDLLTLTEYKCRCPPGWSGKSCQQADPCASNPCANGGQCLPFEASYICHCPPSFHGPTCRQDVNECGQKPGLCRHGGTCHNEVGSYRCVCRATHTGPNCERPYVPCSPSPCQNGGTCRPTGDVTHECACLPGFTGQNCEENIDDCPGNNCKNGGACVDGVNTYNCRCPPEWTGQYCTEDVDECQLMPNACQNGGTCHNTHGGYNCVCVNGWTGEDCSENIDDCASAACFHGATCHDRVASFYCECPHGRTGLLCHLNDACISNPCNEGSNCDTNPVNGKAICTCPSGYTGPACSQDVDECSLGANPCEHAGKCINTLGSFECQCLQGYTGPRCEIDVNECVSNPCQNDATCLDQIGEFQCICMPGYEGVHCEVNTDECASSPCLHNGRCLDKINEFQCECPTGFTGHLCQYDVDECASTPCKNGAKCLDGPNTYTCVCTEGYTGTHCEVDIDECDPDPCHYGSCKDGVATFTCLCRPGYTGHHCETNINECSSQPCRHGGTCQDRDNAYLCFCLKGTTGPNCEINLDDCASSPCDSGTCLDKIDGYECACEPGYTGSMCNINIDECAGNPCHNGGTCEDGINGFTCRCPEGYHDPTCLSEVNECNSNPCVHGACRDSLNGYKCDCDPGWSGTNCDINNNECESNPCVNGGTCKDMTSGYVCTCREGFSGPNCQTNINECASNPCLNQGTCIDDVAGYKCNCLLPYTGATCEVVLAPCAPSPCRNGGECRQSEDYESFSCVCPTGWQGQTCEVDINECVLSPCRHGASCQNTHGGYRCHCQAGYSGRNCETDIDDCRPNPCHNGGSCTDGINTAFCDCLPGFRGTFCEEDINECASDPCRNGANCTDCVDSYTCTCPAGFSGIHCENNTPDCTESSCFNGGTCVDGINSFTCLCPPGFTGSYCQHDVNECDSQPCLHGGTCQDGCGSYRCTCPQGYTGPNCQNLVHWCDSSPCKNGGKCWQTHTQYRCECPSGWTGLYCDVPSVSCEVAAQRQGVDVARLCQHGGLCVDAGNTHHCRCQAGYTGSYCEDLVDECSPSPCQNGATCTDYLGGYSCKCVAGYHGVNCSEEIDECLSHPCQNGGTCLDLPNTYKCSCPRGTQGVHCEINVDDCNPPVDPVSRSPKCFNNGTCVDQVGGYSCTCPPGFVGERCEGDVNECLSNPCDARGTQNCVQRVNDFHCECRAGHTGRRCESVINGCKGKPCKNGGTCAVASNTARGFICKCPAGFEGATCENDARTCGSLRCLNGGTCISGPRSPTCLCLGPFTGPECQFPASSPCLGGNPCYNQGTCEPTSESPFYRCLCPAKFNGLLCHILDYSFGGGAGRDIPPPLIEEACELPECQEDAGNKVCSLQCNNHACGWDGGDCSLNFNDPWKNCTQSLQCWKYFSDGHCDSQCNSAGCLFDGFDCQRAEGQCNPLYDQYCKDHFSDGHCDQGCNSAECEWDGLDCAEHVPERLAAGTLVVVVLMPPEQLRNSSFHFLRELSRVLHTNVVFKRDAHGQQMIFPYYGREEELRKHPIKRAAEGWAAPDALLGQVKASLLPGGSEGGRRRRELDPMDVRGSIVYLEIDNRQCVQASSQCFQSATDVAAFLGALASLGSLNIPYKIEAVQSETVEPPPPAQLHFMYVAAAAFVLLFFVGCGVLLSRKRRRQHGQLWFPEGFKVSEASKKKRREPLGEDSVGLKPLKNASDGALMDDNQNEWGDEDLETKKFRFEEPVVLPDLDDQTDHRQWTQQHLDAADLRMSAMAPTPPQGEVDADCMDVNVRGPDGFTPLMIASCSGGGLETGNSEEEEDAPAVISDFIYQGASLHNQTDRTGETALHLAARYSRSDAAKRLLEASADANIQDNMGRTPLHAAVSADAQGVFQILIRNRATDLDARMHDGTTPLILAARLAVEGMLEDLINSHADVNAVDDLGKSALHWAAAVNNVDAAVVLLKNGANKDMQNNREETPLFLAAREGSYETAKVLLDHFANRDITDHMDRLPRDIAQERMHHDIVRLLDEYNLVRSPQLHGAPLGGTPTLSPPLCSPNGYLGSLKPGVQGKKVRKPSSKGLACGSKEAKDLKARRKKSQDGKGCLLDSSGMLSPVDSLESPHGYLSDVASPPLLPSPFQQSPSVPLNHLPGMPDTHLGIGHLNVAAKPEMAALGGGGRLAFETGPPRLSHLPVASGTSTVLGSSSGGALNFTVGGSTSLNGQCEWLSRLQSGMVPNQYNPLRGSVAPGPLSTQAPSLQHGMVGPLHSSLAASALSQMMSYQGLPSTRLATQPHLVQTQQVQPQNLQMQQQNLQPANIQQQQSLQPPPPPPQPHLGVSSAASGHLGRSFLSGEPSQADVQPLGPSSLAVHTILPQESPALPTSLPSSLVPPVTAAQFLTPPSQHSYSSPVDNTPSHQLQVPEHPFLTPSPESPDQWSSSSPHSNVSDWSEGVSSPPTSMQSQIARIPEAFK

ANK1 = assay: SPR binding to the α-helical regions ANK1 to ANK6
Protocol: as §1, §2

ANK domain of N1ICD [6] = target: T1, ANK domain of N1ICD; assay: KD (M); remark: listed apart in the source
Description: Table printed on a drawing sheet, FIG. 1D
as §6
Target sequence in this assay (P46531 19-2555 limits assumed): as above
First copying reader's note: Alanine scan of mAH2; the substituted A is printed in lighter type, and the rows mAH2-7, mAH2-9 and mAH2-14 are highlighted in lighter type.
Where the first naming reader finds the target: passage: A tertiary structure of the ANK domain of N1ICD was obtained from a PDB database

Compound: CC[C@H](C)[C@H](NC(=O)[C@H](CCCNC(=N)N)NC(=O)[C@H](CCCCN)NC(=O)[C@H](C)NC(=O)[C@@H](N)Cc1ccc(O)cc1)C(=O)N[C@]1(C)CCC/C=C/CCC[C@](C)(C(=O)N[C@@H](CC(C)C)C(=O)O)NC(=O)[C@H](CCCCN)NC(=O)[C@H](CO)NC(=O)[C@H](CC(C)C)NC(=O)[C@H](CC(C)C)NC(=O)[C@H](CCC(N)=O)NC(=O)[C@H](Cc2ccc(O)cc2)NC1=O [SAH-mAH2-5, stapled α-helix-modified α-helix 2-5] (H-YAKRI[R5]YQLLSK[R5]L-OH; staple (E) 6-13)
affinity for the ANK domain (ANK domain of N1ICD [1]): strongest binding ability; also recorded: highest affinity for ANK | resistance to proteases (proteinase K, pepsin): significantly enhanced the resistance to proteases | half-life in plasma [2]: prolonged the half-life in plasma | organoid growth inhibition ([3]; PDAC with high USP10 and N1ICD expression levels): significant organoid growth inhibition | inhibition effect ([3]; PDAC-1 and PDAC-3 models with relatively low USP10 and N1ICD expression levels): poor inhibition effect | median survival (PDOX model of PDAC): prolonged median survival | USP10-N1ICD interaction (USP10-N1ICD interaction): inhibit USP10-N1ICD interaction | N1ICD deubiquitination (N1ICD; Capan1 cells): inhibited | Notch signaling and N1ICD expression (N1ICD; Capan1 cells): inhibiting Notch signaling and its N1ICD expression in a time- and dose-dependent manner | N1ICD stability (N1ICD; Capan1 cells after cycloheximide (CHX)): inhibited N1ICD stability | morphology of major organs (HE staining) [4]: without affecting the liver, lungs, and kidneys and other major normal tissues and organs; also recorded: no morphological changes in major functional organs | serum ALT, AST, BUN and creatinine [4]: no abnormalities in the main indicators of liver and kidney functions

Kd (ANK domain of N1ICD [5]): 1.05 nM
Compound: CC[C@H](C)[C@H](NC(=O)[C@H](CCCNC(=N)N)NC(=O)[C@H](CCCCN)NC(=O)[C@H](C)NC(=O)[C@@H](N)Cc1ccc(O)cc1)C(=O)N[C@]1(C)CCC/C=C\CCC[C@](C)(C(=O)N[C@@H](CO)C(=O)N[C@@H](CCCCN)C(=O)N[C@@H](CCC(N)=O)C(=O)N[C@@H](CC(C)C)C(=O)O)NC(=O)[C@H](CC(C)C)NC(=O)[C@H](CCC(N)=O)NC(=O)[C@H](Cc2ccc(O)cc2)NC1=O [SAH-mAH2-3] (H-YAKRI[R5]YQL[R5]SKQL-OH; staple (Z) 6-10)

affinity for the ANK domain (ANK domain of N1ICD [1]): higher affinity to the ANK domain | interaction with ANK1 (ANK1): readily interacted with ANK1 | Kd (ANK domain of N1ICD [6]): 60.4 nM
Compound: YAKRIFYQLLSKEL [AH2]

affinity for the ANK domain (ANK domain of N1ICD [1]): comparable affinity for ANK | Kd (ANK domain of N1ICD [5]): 60.4 nM
Compound: YAKRIFYQLLSKQL [mAH2, YAKRIFYQLLSKQL]
